Patent US20150290105A1, “COMPOSITION COMPRISING SYRINGARESINOL FOR IMPROVING THE SKIN” (AMOREPACIFIC CORPORATION, priority 2011, published 2015)

Legend:
[1] = system: mushroom-derived tyrosinase; assay: Tyrosinase activity inhibiting effect (dopachrome formation); assay type: biochemical; settings: 10 ppm, 37° C. 10 minutes
Procedure: The reaction solution was prepared by adding 500 μL of 0.1 M PBS, 15 μg of L-tyrosine and 50 μL of syringaresinol and then adding distilled water to make the final volume 1500 μL. A solution prepared through the same procedure but with Kojic acid instead of syringaresinol was used as a positive control. The concentration of all the samples used in experiment was set to 10 ppm. After adding 10 units of mushroom-derived tyrosinase to the reaction solution, followed by reaction at 37° C. for 10 minutes, the reaction was stopped by quickly transferring onto ice for 5 minutes. The synthesis rate of dopachrome produced was determined by measuring absorbance at 475 nm and tyrosinase activity inhibiting rate (%) was calculated therefrom.

[2] = system: interleukin 6 gene; assay: Interleukin 6 gene expression in keratinocytes (Q-RT-PCR); assay type: cell-based; settings: 24 hours, relative to non-treated control
Procedure: Interleukin 6 (IL-6) is a cytokine secreted by keratinocytes, etc. Increased secretion owing to activation of the IL-6 gene leads to bright skin color and skin tone and suppressed skin pigmentation such as melasma or blemish. It was investigated whether syringaresinol can increase the expression of the IL-6 gene in skin keratinocytes.
Keratinocytes were treated with 10 ppm or 100 ppm syringaresinol. 24 hours later, the cells were recovered and washed twice with 10 mL of PBS. Then, total RNA was isolated from the cells using TRIzol reagent (Invitrogen, Carlsbad, Calif., USA). The isolated RNA was purified once more using the Qiagen RNeasy kit (Qiagen, Valencia, Calif.) and cDNA was synthesized therefrom using the Superscript Reverse Transcriptase (RT) II kit (Invitrogen, Carlsbad, Calif.). Subsequently, the change in the expression of the interleukin 6 gene was quantitatively analyzed by real-time reverse transcription polymerase chain reaction (Q-RT-PCR). The change in the gene expression pattern was evaluated using the TaqMan gene expression assay kit (Applied Biosystems, Forster City, Calif.). Hs00174360_ml was used as a primer. The expression level of interleukin 6 in the cells was analyzed by real-time PCR and was calculated relative to a non-treated control group.

[3] = Keratin reducing effect on human skin (Charm View); assay type: in vivo
Procedure: In order to investigate whether syringaresinol can reduce the keratin of skin, syringaresinol of the same concentration as in Test Example 6 was applied on the inside of the lower arms of 50 male and female adults in their 20s and 30s and without skin diseases. 24 hours later, the reduced amount of keratin was measuring using Charm View (Moritex, Japan). The initial amount of skin keratin prior to application of the test substance measured with Charm View under a constant-temperature (24° C.), constant-humidity (40%) condition was used as a reference value, and the change in the amount of keratin was measured 24 hours later.

[4] = Skin whitening effect when orally administered, UV-irradiated brown guinea pig; assay type: in vivo; settings: 1% in feed, 5 weeks, oral
Procedure: Minimal erythemal dose was measured after irradiating UV to guinea pigs. After grouping the guinea pigs with 10 per each group, UV of the minimal erythemal dose was irradiated once a day, for a total of 3 times. The guinea pigs were allowed free access to feed for 5 weeks. The feed contained 1% syringaresinol or 1% vitamin C (Vit C) as a positive control. Skin pigmentation was measure using a colorimeter in substantially the same manner as in Test Example 6.

Structure (SMILES): COc1cc(C2OCC3C(c4cc(OC)c(O)c(OC)c4)OCC23)cc(OC)c1O (stereo not drawn) [Syringaresinol, syringaresinol]
- Tyrosinase activity inhibiting rate (%) [1]: 90.2%
- Expression of IL-6 gene ([2]; 10 ppm): 3.5
- Expression of IL-6 gene ([2]; 100 ppm): 8.2
- Amount of skin keratin, 24 hours later ([3]; 1% applied on lower arm, 24 hours): 11.9
- Amount of skin keratin, Before application ([3]; reference value, 24° C., 40% humidity): 20.3
- Skin color brightness (ΔL*) [4]: 1.67 ± 0.25
